Measured values: patent US12637464B2, “Tetracyclic compounds for treating brain disorders” (The Regents of the University of California, priority 2021, dated 2026)

Assays:
PSYLI2 cells = experiment: PsychLight assays (agonist and antagonist mode); type: cell-based; conditions: FIG. 3C-3E; agonist mode concentration-response, antagonist mode 1 μM
Procedure: PsychLight Assays. Psychlight assays were performed using a previously published method. Briefly, glass bottom 96-well plates were coated with 50 μg/mL of poly-D-lysine overnight at room temperature and then washed with Dulbecco's PBS. PSYLI2 cells were suspended in DMEM containing 10% FBS with 5% penicillin-streptomycin, plated at a density of 40,000 cells/well, and incubated (37° C., 5% CO2) for 24 h prior to each experiment. Immediately before an experiment, stock solutions of drugs in DMSO were diluted 1:100 in imaging media distributed across an empty 96-well plate (treatment plate) following a randomized plate map. The imaging media consisted of 1×HBSS containing […] and […]. […] Data were from 2 plates with 2-3 wells being analyzed per plate. […]
Once imaging was complete, the images were exported, and analyzed using a custom Python script. […] The mask was generated by calculating the average fluorescence intensity for the entire image and using that value as a threshold. […] The % ΔF/F values for each well were calculated using the following equation: […]
Once imaging was complete, the images were exported, and analyzed using a custom Python script. […] The mask was generated by calculating the average fluorescence intensity for the entire image and using that value as a threshold. […]

[1] = tested on: dendritic spine density in the PFC; experiment: In vivo spinogenesis (electron microscopy); parameters: species or system C57BL/6J mice; conditions: single dose 1 mg/kg, 24 h after administration, 3 animals per group
Procedure: In Vivo Spinogenesis. Female C57BL/6J mice (Jackson Laboratory, Sacramento, C.A.) were treated with VEH (saline) or (+)-JRT (n=3/group). After 24 h, the animals were sacrificed via transcardial perfusion with oxygenated Ringer's solution followed by a fixative (2% paraformaldehyde, 2.5% glutaraldehyde, 3 mM calcium chloride in 0.1 M cacodylate buffer). Brains were carefully removed from the skull and post-fixed overnight in the same fixative. Brains were then rinsed with PBS and 100 μm coronal sections spanning the prefrontal cortex were collected using a vibrating microtome (Leica). Regions of the infralimbic cortex were microdissected according to the Allen brain atlas and processed further for electron microscopy. Briefly, samples were stained with buffered 1.5% reduced osmium tetroxide for 45 minutes, rinsed thoroughly, further stained with 1% aqueous uranyl acetate overnight at 4° C., dehydrated and embedded in Eponate 12 epoxy resin. A blockface that spanned from the medial cortical surface to the corpus collosum was trimmed and 150-250 serial ultrathin sections (55 nm) were collected onto silicon chips using diamond knives (Diatome) on an ultramicrotome (Leica). Serial sections on silicon chips were loaded into the scanning electron microscope (SEM; Zeiss Sigma VP) for imaging. […] Dendritic spine densities (spines/micron) were calculated for each volume.

Q: How did the “hallucinogenic potential (psychLight)” value (PSYLI2 cells) turn out when `CCN(CC)C(=O)[C@@H]1C=C2c3cccc4ccn(c34)C[C@H]2N(C)C1` [(+)-JRT] was run?
A: low hallucinogenic potential

Q: And the “dendritic spine density in the PFC” value [1]?
A: increases dendritic spine density
